Source: ChEMBL document CHEMBL5150045, “Structure-Guided Design of Halofuginone Derivatives as ATP-Aided Inhibitors Against Bacterial Prolyl-tRNA Synthetase” (J Med Chem, 2022)
Converted amounts (≈) assume the structure as drawn.

Experiments:
Staphylococcus aureus [1] = assay: Antibacterial activity against Staphylococcus aureus ATCC25923 assessed as prevention of visible growth by broth microdilution method; assay type: functional
Escherichia coli = assay: Antibacterial activity against Escherichia coli ATCC25922 assessed as prevention of visible growth by broth microdilution method; assay type: functional
Salmonella typhi = assay: Antibacterial activity against Salmonella typhi CMCC50094 assessed as prevention of visible growth by broth microdilution method; assay type: functional, Salmonella enterica subsp. enterica serovar Typhi; conditions: Salmonella enterica
Staphylococcus aureus [2] = assay: Inhibition of methicillin-resistant Staphylococcus aureus ProRS expressed in Escherichia coli assessed as change in melting temperature in presence of AMPPNP at 0.5 mM by fluorescence-based thermal shift assay
Staphylococcus aureus [3] = assay: Antibacterial activity against methicillin-resistant Staphylococcus aureus 252 assessed as prevention of visible growth by broth microdilution method; assay type: functional
[4] = Inhibition of methicillin-resistant Staphylococcus aureus ProRS expressed in Escherichia coli assessed as generation of inorganic monophosphate by pre-transfer editing-based experiment
Staphylococcus aureus [5] = assay: Antibacterial activity against methicillin-resistant Staphylococcus aureus R3708 assessed as prevention of visible growth by broth microdilution method; assay type: functional
Homo sapiens = organism: Homo sapiens; assay: Inhibition of human ProRS expressed in Escherichia coli assessed as change in melting temperature in presence of AMPPNP at 0.5 mM by fluorescence-based thermal shift assay
Staphylococcus aureus [6] = assay: Antibacterial activity against Staphylococcus aureus ATCC29213 assessed as prevention of visible growth by broth microdilution method; assay type: functional
Shigella flexneri = assay: Antibacterial activity against Shigella flexneri CMCC51572 assessed as prevention of visible growth by broth microdilution method; assay type: functional

O=C(C[C@@H]1CCCCN1)Cn1cnc2cc(Br)c(Cl)cc2c1=O
MIC (Staphylococcus aureus [1]): 32 µg/mL (≈ 80.3 µM) | MIC (Escherichia coli): 32 µg/mL (≈ 80.3 µM) | MIC (Salmonella typhi): 32 µg/mL (≈ 80.3 µM) | ΔTm (Staphylococcus aureus [2]): 6.2 °C | MIC (Staphylococcus aureus [3]): 16 µg/mL (≈ 40.1 µM) | IC50 [4]: 0.61 µM | MIC (Staphylococcus aureus [5]): 16 µg/mL (≈ 40.1 µM) | ΔTm (Homo sapiens): 17.9 °C | MIC (Staphylococcus aureus [6]): 16 µg/mL (≈ 40.1 µM) | MIC (Shigella flexneri): 16 µg/mL (≈ 40.1 µM)

O=C(C[C@@H]1CCCCN1)Cn1cnc2cc(C(F)(F)F)ccc2c1=O
MIC (Staphylococcus aureus [1]): > 64 µg/mL | MIC (Escherichia coli): > 64 µg/mL | MIC (Salmonella typhi): > 64 µg/mL | ΔTm (Staphylococcus aureus [2]): 3.4 °C | MIC (Staphylococcus aureus [3]): > 64 µg/mL | IC50 [4]: 1.28 µM | MIC (Staphylococcus aureus [5]): > 64 µg/mL | ΔTm (Homo sapiens): 16.9 °C | MIC (Staphylococcus aureus [6]): > 64 µg/mL | MIC (Shigella flexneri): > 64 µg/mL

O=C(C[C@@H]1CCCCN1)Cn1cnc2cc3c(cc2c1=O)OCO3
MIC (Staphylococcus aureus [1]): > 64 µg/mL | MIC (Escherichia coli): > 64 µg/mL | MIC (Salmonella typhi): > 64 µg/mL | ΔTm (Staphylococcus aureus [2]): 2.1 °C | MIC (Staphylococcus aureus [3]): > 64 µg/mL | IC50 [4]: 36.3 µM | MIC (Staphylococcus aureus [5]): > 64 µg/mL | ΔTm (Homo sapiens): 15.9 °C | MIC (Staphylococcus aureus [6]): > 64 µg/mL | MIC (Shigella flexneri): > 64 µg/mL

O=c1c2cc(Cl)c(Br)cc2ncn1CC(O)C[C@@H]1CCCCN1 (some centres not stated)
MIC (Staphylococcus aureus [1]): > 64 µg/mL | MIC (Escherichia coli): > 64 µg/mL | MIC (Salmonella typhi): > 64 µg/mL | ΔTm (Staphylococcus aureus [2]): 0 °C | MIC (Staphylococcus aureus [3]): > 64 µg/mL | IC50 [4]: > 100 µM | MIC (Staphylococcus aureus [5]): > 64 µg/mL | ΔTm (Homo sapiens): 11.9 °C | MIC (Staphylococcus aureus [6]): > 64 µg/mL | MIC (Shigella flexneri): > 64 µg/mL

O=C(C[C@@H]1CCCCN1)Cn1cnc2cccnc2c1=O
MIC (Staphylococcus aureus [1]): > 64 µg/mL | MIC (Escherichia coli): > 64 µg/mL | MIC (Salmonella typhi): > 64 µg/mL | ΔTm (Staphylococcus aureus [2]): 0 °C | MIC (Staphylococcus aureus [3]): > 64 µg/mL | IC50 [4]: > 100 µM | MIC (Staphylococcus aureus [5]): > 64 µg/mL | ΔTm (Homo sapiens): 6.9 °C | MIC (Staphylococcus aureus [6]): > 64 µg/mL | MIC (Shigella flexneri): > 64 µg/mL

O=C(C[C@@H]1CCCCN1)Cn1cnc2ccc(C(F)(F)F)cc2c1=O
MIC (Staphylococcus aureus [1]): 64 µg/mL (≈ 181 µM) | MIC (Escherichia coli): 64 µg/mL (≈ 181 µM) | MIC (Salmonella typhi): 64 µg/mL (≈ 181 µM) | ΔTm (Staphylococcus aureus [2]): 1.2 °C | MIC (Staphylococcus aureus [3]): 64 µg/mL (≈ 181 µM) | IC50 [4]: > 100 µM | MIC (Staphylococcus aureus [5]): 64 µg/mL (≈ 181 µM) | ΔTm (Homo sapiens): 9.9 °C | MIC (Staphylococcus aureus [6]): 32 µg/mL (≈ 90.6 µM) | MIC (Shigella flexneri): 64 µg/mL (≈ 181 µM)

O=C(C[C@@H]1CCCCN1)Cn1cnc2cc(F)ccc2c1=O
MIC (Staphylococcus aureus [1]): 32 µg/mL (≈ 105 µM) | MIC (Escherichia coli): 16 µg/mL (≈ 52.7 µM) | MIC (Salmonella typhi): 32 µg/mL (≈ 105 µM) | ΔTm (Staphylococcus aureus [2]): 6.9 °C | MIC (Staphylococcus aureus [3]): 32 µg/mL (≈ 105 µM) | IC50 [4]: 1.71 µM | MIC (Staphylococcus aureus [5]): 32 µg/mL (≈ 105 µM) | ΔTm (Homo sapiens): 18.1 °C | MIC (Staphylococcus aureus [6]): 32 µg/mL (≈ 105 µM) | MIC (Shigella flexneri): 8 µg/mL (≈ 26.4 µM)

O=C(C[C@@H]1CCCCN1)Cn1cnc2nccnc2c1=O
MIC (Staphylococcus aureus [1]): > 64 µg/mL | MIC (Escherichia coli): > 64 µg/mL | MIC (Salmonella typhi): > 64 µg/mL | ΔTm (Staphylococcus aureus [2]): 0 °C | MIC (Staphylococcus aureus [3]): > 64 µg/mL | IC50 [4]: > 100 µM | MIC (Staphylococcus aureus [5]): > 64 µg/mL | ΔTm (Homo sapiens): 4.9 °C | MIC (Staphylococcus aureus [6]): > 64 µg/mL | MIC (Shigella flexneri): > 64 µg/mL

O=C(C[C@@H]1CCCCN1)Cn1cnc2cc3ccccc3cc2c1=O
MIC (Staphylococcus aureus [1]): > 64 µg/mL | MIC (Escherichia coli): > 64 µg/mL | MIC (Salmonella typhi): > 64 µg/mL | ΔTm (Staphylococcus aureus [2]): 0 °C | MIC (Staphylococcus aureus [3]): > 64 µg/mL | IC50 [4]: > 100 µM | MIC (Staphylococcus aureus [5]): > 64 µg/mL | ΔTm (Homo sapiens): 7.9 °C | MIC (Staphylococcus aureus [6]): > 64 µg/mL | MIC (Shigella flexneri): > 64 µg/mL

Cc1cc2ncn(CC(=O)C[C@@H]3CCCCN3)c(=O)c2cc1C
MIC (Staphylococcus aureus [1]): > 64 µg/mL | MIC (Escherichia coli): > 64 µg/mL | MIC (Salmonella typhi): > 64 µg/mL | ΔTm (Staphylococcus aureus [2]): 1.3 °C | MIC (Staphylococcus aureus [3]): > 64 µg/mL | IC50 [4]: 17.6 µM | MIC (Staphylococcus aureus [5]): > 64 µg/mL | ΔTm (Homo sapiens): 13.9 °C | MIC (Staphylococcus aureus [6]): > 64 µg/mL | MIC (Shigella flexneri): > 64 µg/mL

O=c1c2ccccc2ncn1CCC[C@@H]1CCCCN1
MIC (Staphylococcus aureus [1]): > 64 µg/mL | MIC (Escherichia coli): > 64 µg/mL | MIC (Salmonella typhi): > 64 µg/mL | ΔTm (Staphylococcus aureus [2]): 0 °C | MIC (Staphylococcus aureus [3]): > 64 µg/mL | IC50 [4]: > 100 µM | MIC (Staphylococcus aureus [5]): > 64 µg/mL | ΔTm (Homo sapiens): 4.2 °C | MIC (Staphylococcus aureus [6]): > 64 µg/mL | MIC (Shigella flexneri): > 64 µg/mL

O=C(C[C@@H]1CCCCN1)Cn1cnc2ccccc2c1=O
MIC (Staphylococcus aureus [1]): 32 µg/mL (≈ 112 µM) | MIC (Escherichia coli): 64 µg/mL (≈ 224 µM) | MIC (Salmonella typhi): 64 µg/mL (≈ 224 µM) | ΔTm (Staphylococcus aureus [2]): 1.3 °C | MIC (Staphylococcus aureus [3]): 16 µg/mL (≈ 56.1 µM) | IC50 [4]: 18.3 µM | MIC (Staphylococcus aureus [5]): 32 µg/mL (≈ 112 µM) | ΔTm (Homo sapiens): 15.7 °C | MIC (Staphylococcus aureus [6]): 32 µg/mL (≈ 112 µM) | MIC (Shigella flexneri): 32 µg/mL (≈ 112 µM)

O=C(C[C@@H]1CCCCN1)Cn1cnc2ccc(F)cc2c1=O
MIC (Staphylococcus aureus [1]): 32 µg/mL (≈ 105 µM) | MIC (Escherichia coli): 16 µg/mL (≈ 52.7 µM) | MIC (Salmonella typhi): 32 µg/mL (≈ 105 µM) | ΔTm (Staphylococcus aureus [2]): 6.3 °C | MIC (Staphylococcus aureus [3]): 32 µg/mL (≈ 105 µM) | IC50 [4]: 8.2 µM | MIC (Staphylococcus aureus [5]): 32 µg/mL (≈ 105 µM) | ΔTm (Homo sapiens): 17.9 °C | MIC (Staphylococcus aureus [6]): 32 µg/mL (≈ 105 µM) | MIC (Shigella flexneri): 16 µg/mL (≈ 52.7 µM)

CC1(C)S[C@@H]2[C@H](NC(=O)[C@H](N)c3ccccc3)C(=O)N2[C@H]1C(=O)O [AMPICILLIN]
MIC (Salmonella typhi): 2 µg/mL (≈ 5.72 µM) | MIC (Shigella flexneri): 2 µg/mL (≈ 5.72 µM)
